# Measured values taken from US9394268B2, “(E)-1-(5-methoxy-2,2-dimethyl-2H-chromen-8-yl)-3-(4-methoxyphenyl)prop-2-en-1-one and analogs thereof, as well as preparation method and use thereof” (Sichuan University, priority 2012, dated 2016).
# What was measured:
# Assay type in all cases: cell-based
# SMMC-7221 = assay: Cell proliferative assay (MTT), SMMC-7221; settings: 72 h incubation, read-out: IC50s SMMC-7221
# Experimental: (§1) The synthesized compounds were evaluated for their cytotoxin activity against suspended tumor cells. These cells were seeded on 96-well plates and incubated for 24 h. Selected compounds were added at various doses and incubated for 72 h, MTT was then added, and the absorbance was measured at a wavelength of 590 nm. IC50 values are expressed as the mean±SEM from the dose-response curves of at least three independent experiments.
# A375 = assay: Cell proliferative assay (MTT), A375; settings: Homo sapiens, A-375, 72 h incubation, read-out: IC50s A375
# Experimental: as §1
# K562 = assay: Cell proliferative assay (MTT), K562; settings: Homo sapiens, 72 h incubation, read-out: IC50s K562
# Experimental: as §1
# HepG2 = assay: Cell proliferative assay (MTT), HepG2; settings: Homo sapiens, 72 h incubation, read-out: IC50s HepG2
# Experimental: as §1
# LO2 = assay: Cell proliferative assay (MTT), LO2; settings: Homo sapiens, L02, 72 h incubation, read-out: IC50s LO2
# Experimental: as §1
# A549 = assay: Cell proliferative assay (MTT), A549; settings: Homo sapiens, 72 h incubation, read-out: IC50s A549
# Experimental: as §1
SMILES,IC50 (SMMC-7221) [µM],IC50 (A375) [µM],IC50 (K562) [µM],IC50 (HepG2) [µM],IC50 (A549) [µM],IC50 (LO2) [µM]
"CNc1cc(/C=C/C(=O)c2ccc(OC)c3c2OC(C)(C)C=C3)ccc1OC [SKLBC-85, (E)-1-(5-methoxy-2,2-dimethyl-2H-chromen-8-yl)-3-(4-methoxy-3-(methylamino)phenyl)prop-2-en-1-one]",> 10,> 10,> 10,> 10,> 10,> 20
"CCN(CC)c1cc(/C=C/C(=O)c2ccc(OC)c3c2OC(C)(C)C=C3)ccc1OC [SKLBC-86, (E)-3-(3-(diethylamino)-4-methoxyphenyl)-1-(5-methoxy-2,2-dimethyl-2H-chromen-8-yl)prop-2-en-1-one]",> 10,> 10,> 10,> 10,> 10,> 20
"C#CCNc1cc(/C=C/C(=O)c2ccc(OC)c3c2OC(C)(C)C=C3)ccc1OC [SKLBC-87, (E)-1-(5-methoxy-2,2-dimethyl-2H-chromen-8-yl)-3-(4-methoxy-3-(prop-2-yn-1-ylamino)phenyl)prop-2-en-1-one]",> 10,> 10,> 10,> 10,> 10,> 20
"COc1ccc(/C=C/C(=O)c2ccc(OC)c3c2OC(C)(C)C=C3)cc1N(CC=C(C)C)CC=C(C)C [SKLBC-88, (E)-3-(3-(bis(3-methylbut-2-en-1-yl)amino)-4-methoxyphenyl)-1-(5-methoxy-2,2-dimethyl-2H-chromen-8-yl)prop-2-en-1-one]",> 10,> 10,7.5,> 10,> 10,9.7
"COc1ccc(/C=C/C(=O)c2ccc(OC)c3c2OC(C)(C)C=C3)cc1N(Cc1ccccc1)Cc1ccccc1 [SKLBC-91, (E)-3-(3-(dibenzylamino)-4-methoxyphenyl)-1-(5-methoxy-2,2-dimethyl-2H-chromen-8-yl)prop-2-en-1-one]",> 10,> 10,0.57,> 10,> 10,> 10
"C=CC(=O)Nc1cc(/C=C/C(=O)c2ccc(OC)c3c2OC(C)(C)C=C3)ccc1OC [SKLBC-94, (E)-N-(2-methoxy-5-(3-(5-methoxy-2,2-dimethyl-2H-chromen-8-yl)-3-oxoprop-1-en-1-yl)phenyl)acrylamide]",> 10,> 10,> 10,> 10,> 10,> 20
"CCCCC(=O)Nc1cc(/C=C/C(=O)c2ccc(OC)c3c2OC(C)(C)C=C3)ccc1OC [SKLBC-95, (E)-N-(2-methoxy-5-(3-(5-methoxy-2,2-dimethyl-2H-chromen-8-yl)-3-oxoprop-1-en-1-yl)phenyl)pentanamide]",> 10,> 10,> 10,> 10,> 10,> 20
"COc1ccc(/C=C/C(=O)c2ccc(OC)c3c2OC(C)(C)C=C3)cc1NC(=O)C(C)C [SKLBC-96, (E)-N-(2-methoxy-5-(3-(5-methoxy-2,2-dimethyl-2H-chromen-8-yl)-3-oxoprop-1-en-1-yl)phenyl)isobutyramide]",> 10,> 10,> 10,> 10,> 10,> 20
"COc1ccc(/C=C/C(=O)c2ccc(OC)c3c2OC(C)(C)C=C3)cc1NC(=O)Cc1cccc(C(F)(F)F)c1 [SKLBC-97, (E)-N-(2-methoxy-5-(3-(5-methoxy-2,2-dimethyl-2H-chromen-8-yl)-3-oxoprop-1-en-1-yl)phenyl)-2-(3-(trifluoromethyl)phenyl)acetamide]",> 10,> 10,> 10,> 10,> 10,> 10
"COc1ccc(/C=C/C(=O)c2ccc(OC)c3c2OC(C)(C)C=C3)cc1NS(=O)(=O)C1CC1 [SKLBC-100, (E)-N-(2-methoxy-5-(3-(5-methoxy-2,2-dimethyl-2H-chromen-8-yl)-3-oxoprop-1-en-1-yl)phenyl)cyclopropanesulfonamide]",> 10,> 10,> 10,> 10,> 10,> 20

# The next lines start with results.
IC50 (SMMC-7221) [µM],IC50 (A375) [µM],IC50 (K562) [µM],IC50 (HepG2) [µM],IC50 (A549) [µM],SMILES,IC50 (LO2) [µM]
2.73,0.245,0.202,0.09,0.226,"COc1ccc(/C=C/C(=O)c2ccc(OC)c3c2OC(C)(C)C=C3)cc1OC(=O)CCl [SKLBC-74, (E)-2-methoxy-5-(3-(5-methoxy-2,2-dimethyl-2H-chromen-8-yl)-3-oxoprop-1-en-1-yl)phenyl 2-chloroacetate]",> 10
1.16,0.19,0.295,0.06,0.49,"C=CC(=O)Oc1cc(/C=C/C(=O)c2ccc(OC)c3c2OC(C)(C)C=C3)ccc1OC [SKLBC-75, (E)-2-methoxy-5-(3-(5-methoxy-2,2-dimethyl-2H-chromen-8-yl)-3-oxoprop-1-en-1-yl)phenyl acrylate]",> 10
> 10,> 10,9.24,9,> 10,"COc1ccc(/C=C/C(=O)c2ccc(OC)c3c2OC(C)(C)C=C3)cc1OS(C)(=O)=O [SKLBC-77, (E)-2-methoxy-5-(3-(5-methoxy-2,2-dimethyl-2H-chromen-8-yl)-3-oxoprop-1-en-1-yl)phenyl methanesulfonate]",> 10
> 10,1.06,2.83,2.52,6.4,COc1ccc(/C=C/C(=O)c2ccc(OC)c3c2OC(C)(C)C=C3)cc1OC(=O)C12CC3CC(CC(C3)C1)C2 [SKLBC-78],5.58
1.03,0.378,0.24,0.09,1.18,"CCCCC(=O)Oc1cc(/C=C/C(=O)c2ccc(OC)c3c2OC(C)(C)C=C3)ccc1OC [SKLBC-79, (E)-2-methoxy-5-(3-(5-methoxy-2,2-dimethyl-2H-chromen-8-yl)-3-oxoprop-1-en-1-yl)phenyl pentanoate]",> 10
1.44,0.383,0.41,0.118,1.32,"COc1ccc(/C=C/C(=O)c2ccc(OC)c3c2OC(C)(C)C=C3)cc1OC(=O)C1CC1 [SKLBC-80, (E)-2-methoxy-5-(3-(5-methoxy-2,2-dimethyl-2H-chromen-8-yl)-3-oxoprop-1-en-1-yl)phenyl cyclopropanecarboxylate]",> 10
2.63,0.505,0.57,0.15,0.98,"COc1ccc(/C=C/C(=O)c2ccc(OC)c3c2OC(C)(C)C=C3)cc1OC(=O)C(C)C [SKLBC-81, (E)-2-methoxy-5-(3-(5-methoxy-2,2-dimethyl-2H-chromen-8-yl)-3-oxoprop-1-en-1-yl)phenyl isobutyrate]",> 10
> 10,> 10,> 10,> 10,> 10,"COc1ccc(/C=C/C(=O)c2ccc(OC)c3c2OC(C)(C)C=C3)cc1[N+](=O)[O-] [SKLBC-82, (E)-1-(5-methoxy-2,2-dimethyl-2H-chromen-8-yl)-3-(4-methoxy-3-nitrophenyl)prop-2-en-1-one]",> 20
> 10,> 10,> 10,> 10,> 10,"COc1ccc(/C=C/C(=O)c2ccc(OC)c3c2OC(C)(C)C=C3)cc1NO [SKLBC-84, (E)-3-(3-(hydroxyamino)-4-methoxyphenyl)-1-(5-methoxy-2,2-dimethyl-2H-chromen-8-yl)prop-2-en-1-one]",> 20
0.245,0.215,0.093,0.05,0.215,"COc1ccc(/C=C/C(=O)c2ccc(OC)c3c2OC(C)(C)C=C3)cc1NCCN1CCOCC1 [SKLBC-89, (E)-1-(5-methoxy-2,2-dimethyl-2H-chromen-8-yl)-3-(4-methoxy-3-((2-morpholinoethyl)amino)phenyl)prop-2-en-1-one]",2.65
2.24,2.15,3.5,2.85,5,"COc1ccc(/C=C/C(=O)c2ccc(OC)c3c2OC(C)(C)C=C3)cc1NC(C)=O [SKLBC-92, (E)-N-(2-methoxy-5-(3-(5-methoxy-2,2-dimethyl-2H-chromen-8-yl)-3-oxoprop-1-en-1-yl)phenyl)acetamide]",> 10
9.2,2.4,7.85,3.6,8.6,"COc1ccc(/C=C/C(=O)c2ccc(OC)c3c2OC(C)(C)C=C3)cc1NC(N)=O [SKLBC-98, (E)-1-(2-methoxy-5-(3-(5-methoxy-2,2-dimethyl-2H-chromen-8-yl)-3-oxoprop-1-en-1-yl)phenyl)urea]",> 10
5.6,9,8.85,10,> 10,"COc1ccc(/C=C/C(=O)c2ccc(OC)c3c2OC(C)(C)C=C3)cc1NS(C)(=O)=O [SKLBC-99, (E)-N-(2-methoxy-5-(3-(5-methoxy-2,2-dimethyl-2H-chromen-8-yl)-3-oxoprop-1-en-1-yl)phenyl)methanesulfonamide]",9.8
